Patent US7371731B2, “Methods for using glucose pentasulfate for treating amyloid associated with type II diabetes” (priority 1998, dated 2008)
“Also recorded” adds a separate entry of the source. Where two headings read alike, the source gives them in different places. Each block holds one compound with its values, some of them ahead of it.

Assays:
[1] = biological target: T1, Aβ-heparan sulfate binding (Homo sapiens, UniProt P05067); test: Solid phase binding immunoassay, Aβ-heparan sulfate binding; details: 2.5 to 0.093 mM; data not shown
T1 construct: 25 μM of Aβ (1-40)(Bachem Inc., Torrance, Calif., USA; Lot #WM365); purchased Bachem Inc., Torrance, Calif., USA
Protocol: 12 μg of heparin (molecular weight=5,000; obtained from the Sigma Chemical Company, St. Louis, Mo., USA) or heparan sulfate (molecular weight=˜70,000; obtained from Seikagaku America, Rockville, Md.) in 80 μl of Tris-buffered saline containing 100 mM Tris-HCl, 50 mM NaCl, 3 mM NaN3, pH 9.0 (TBS) was allowed to bind overnight at 4° C. to microtiter wells (Nunc plates, Maxisorb). The next day all of the microtiter wells were blocked for 2 hours by incubating with 300 μl of TBS with 0.05% Tween-20 (TTBS) plus 1% bovine serum albumin (BSA) (obtained from the Sigma Chemical Company, St. Louis, Mo., USA). Then, 100 μl of 5 μM Aβ 1-40 (Bachem Inc., Torrance, Calif., USA; Lot #WM365) in TTBS containing 0.05% albumin in the presence or absence of glucose pentasulfate at concentrations of 2.5 mM, 0.83 mM, 0.28 mM and 0.093 mM were placed in wells (in triplicate) containing substrate bound perlecan or blank, and allowed to bind overnight at 4° C. The next day, the wells were rinsed once with TTBS, and then probed for 45 minutes with 100 μl of anti-6E10 (Senetek, Maryland Heights, Mo.)(which recognizes Aβ 1-17) diluted 1:1000 with TTBS. […] The reaction was stopped with 50 μl of 4N H2SO4 and read on a Model 450 microplate reader (Biorad, Hercules, Calif., USA) at 490 nm.

[2] = biological target: T2, Aβ-heparin binding (Homo sapiens, UniProt P05067); test: Solid phase binding immunoassay, binding of Aβ to substrate bound heparin; details: 5 μM Aβ 1-40
T2 construct: 25 μM of Aβ (1-40)(Bachem Inc., Torrance, Calif., USA; Lot #WM365); purchased Bachem Inc., Torrance, Calif., USA
Protocol: 12 μg of heparin (molecular weight=5,000; obtained from the Sigma Chemical Company, St. Louis, Mo., USA) or heparan sulfate (molecular weight=˜70,000; obtained from Seikagaku America, Rockville, Md.) in 80 μl of Tris-buffered saline containing 100 mM Tris-HCl, 50 mM NaCl, 3 mM NaN3, pH 9.0 (TBS) was allowed to bind overnight at 4° C. to microtiter wells (Nunc plates, Maxisorb). The next day all of the microtiter wells were blocked for 2 hours by incubating with 300 μl of TBS with 0.05% Tween-20 (TTBS) plus 1% bovine serum albumin (BSA) (obtained from the Sigma Chemical Company, St. Louis, Mo., USA). Then, 100 μl of 5 μM Aβ 1-40 (Bachem Inc., Torrance, Calif., USA; Lot #WM365) in TTBS containing 0.05% albumin in the presence or absence of glucose pentasulfate at concentrations of 2.5 mM, 0.83 mM, 0.28 mM and 0.093 mM were placed in wells (in triplicate) containing substrate bound perlecan or blank, and allowed to bind overnight at 4° C. The next day, the wells were rinsed once with TTBS, and then probed for 45 minutes with 100 μl of anti-6E10 (Senetek, Maryland Heights, Mo.)(which recognizes Aβ 1-17) diluted 1:1000 with TTBS. This was followed by rinsing once with TTBS and probed for 45 minutes with biotinylated goat-anti mouse (diluted 1:1000) containing streptavidin-peroxidase or anti-biotin-peroxidase (1:500 dilution of a 2 μg/ml solution) (Sigma Chemical Co., St. Louis, Mo.) in TTBS containing 0.1% BSA. The wells were then rinsed 3 times with TTBS and 100 μl of a substrate solution (OPD-Sigma Fast from Sigma Chemical Co., St. Louis, Mo.) was added to each well and allowed to develop for 5 minutes or until a significant color change was observed. The reaction was stopped with 50 μl of 4N H2SO4 and read on a Model 450 microplate reader (Biorad, Hercules, Calif., USA) at 490 nm.

[3] = biological target: T3, human islet amyloid polypeptide (Homo sapiens, UniProt P10997); test: Thioflavin T fluorometry assay of islet amyloid polypeptide (amylin) fibrils; assay type: biochemical; details: 1.25 mM
T3 construct: consists of a 37 amino acid protein known as islet amyloid polypeptide or amylin; purchased Bachem Inc, Torrance, Calif., USA
T3 sequence (P10997 34-70 limits assumed): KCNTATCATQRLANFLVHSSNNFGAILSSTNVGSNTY
Protocol: (§1) To assess the effects of each compound on Aβ (1-40) fibril formation, 50 μl aliquots were taken from each tube for analysis at 1 hr, 1 day, 3 days, and 1 week. For each determination described above, following each incubation period, 50 μl of Aβ+/−test compounds were added to 1.2 ml of 100 μM Thioflavin T (Sigma Chemical Co., St. Louis, Mo.) in 50 mM NaPO4 (pH 6.0). […] Fluorescence emission at 482 nm was measured on a Turner instrument-model 450 fluorometer at an excitation wavelength of 450 nm. For each determination, the fluorometer was calibrated by zeroing in the presence of the Thioflavin T reagent alone, and by seting the 50 ng/ml riboflavin (Sigma Chemical Co., St. Louis, Mo.) in the Thioflavin T reagent to 1800 fluorescence units. All fluorescence determinations were based on these references and any fluorescence given off by any of the compounds in the presence of the Thioflavin T reagent was always subtracted from all pertinent readings.
For this study, the method of Thioflavin T fluorometry as described above was used. Briefly, 25 μM of human islet amyloid polypeptide (Bachem Inc, Torrance, Calif., USA, Lot # WL934) was incubated in microcentrifuge tubes at 37° C. for 1 week (in triplicate), either alone, or in the presence of 1.25 mM glucose pentasulfate (PTI-48579; molecular weight=771) or mannose pentasulfate (PTI-07499; molecular weight=771). To assess the effects of glucose pentasulfate and mannose pentasulfate on islet amyloid polypeptide fibrillogenesis, 50 μl aliquots were taken from each tube for analysis at 1 hr, 1 day, 2 days, 3 days, 4 days and 1 week. For each determination described above, following each incubation period, 50 μl aliquots of islet amyloid polypeptide+/−glucose pentasulfate or mannose pentasulfate were added to 1.2 ml of 100 μM Thioflavin T (Sigma Chemical Co., St. Louis, Mo.) in 50 mM NaPO4 (pH 6.0) for fluorometry readings as described in section 4.1.

[4] = biological target: T4, pre-formed Aβ (1-40) amyloid fibrils (Homo sapiens, UniProt P05067); test: Thioflavin T fluorometry assay of dissolution of pre-formed Aβ (1-40) amyloid fibrils; assay type: biochemical; details: 25 μM fibrillized Aβ, 4 day incubation
T4 construct: 25 μM of Aβ (1-40)(Bachem Inc., Torrance, Calif., USA; Lot #WM365); purchased Bachem Inc., Torrance, Calif., USA
Protocol: as §1
For this study, 1 mg of Aβ (1-40) (Bachem Inc., Torrance, Calif., USA; Lot #WM365) was dissolved in 1.0 ml of double distilled water (1 mg/ml solution) and then incubated at 37° C. for 1 week. 25 μM of fibrillized Aβ was then incubated at 37° C. in the presence or absence of glucose pentasulfate at concentrations of 1.25 mM, 0.63 mM, 0.31 mM and 0.16 mM containing 150 mM Tris HCl, 10 mM NaCl, pH 7.0. Following a 4 day incubation, 50 μl aliquots were added to 1.2 ml of 100 μM Thioflavin T (Sigma Chemical Co., St. Louis, Mo.) in 50 mM NaPO4 (pH 6.0) for fluorometry readings as described in section 4.1.

[5] = biological target: T5, Aβ (1-40) (Homo sapiens, UniProt P05067); test: Thioflavin T fluorometry assay of Aβ (1-40) amyloid fibril formation; assay type: biochemical; details: for effect on Aβ (1-40) amyloid fibril formation (in words): 1.25 mM compound (1:50 M ratio), 1-week incubation
T5 construct: 25 μM of Aβ (1-40)(Bachem Inc., Torrance, Calif., USA; Lot #WM365); purchased Bachem Inc., Torrance, Calif., USA
Description: A previously described method of measuring amyloid fibril formation utilizing Thioflavin T fluorometry (H Naiki et al, Lab. Invest. 65:104-110, 1991; H Levine III, Protein Sci. 2:404-410, 1993; H Levine III, Amyloid: Int. J. Exp. Clin. Invest. 2:1-6, 1995; H Naiki and K. Nakakuki, Lab. Invest. 74:374-383, 1996) was employed initially to identify potential therapeutic compounds capable of inhibiting Aβ amyloid fibril formation. Using this sensitive assay, any decreases or increases in fluorescence were previously shown to correlate with a decrease or increase in the amount of amyloid fibrils (H Naiki et al, Lab. Invest. 65:104-110, 1991; H Levine III, Protein Sci. 2:404-410, 1993; H Levine III, Amyloid: Int. J. Exp. Clin. Invest. 2:1-6, 1995; H Naiki and K. Nakakuki, Lab. Invest. 74:374-383, 1996), allowing one to determine the identification and extent of potential inhibitors and/or enhancers of amyloid fibril formation.
In an initial set of studies, the effects of various compounds on Aβ (1-40) fibrillogenesis was assessed. For these initial studies, 25 μM of Aβ (1-40)(Bachem Inc., Torrance, Calif., USA; Lot #WM365) was incubated in microcentrifuge tubes at 37° C. for 1 week (in triplicate), either alone, or in the presence of 1.25 mM (ie. 1:50 M ratio of Aβ:test compound) of various commercially available compounds (described below) in 150 mM Tris HCl, 10 mM NaCl, pH 7.0 (TBS). The compounds tested included glucose pentasulfate (PTI-48579, potassium salt; molecular weight=771), mannose pentasulfate (PTI-07499, potassium salt; molecular weight=771), methyl alpha-D-glucopyranoside 2,3,4,6-tetrasulfate (PTI-20049, potassium salt; molecular weight=667), methyl alpha-D-mannopyranoside 2,3,4,6-tetrasulfate (PTI-20814, potassium salt; molecular weight=667), sucrose heptasulfate (PTI-70936, potassium salt; molecular weight=1169), sucrose hexasulfate (PTI-70946, potassium salt; molecular weight=1052), and sucrose octasulfate (PTI-70011, potassium salt; molecular weight=1288).
as §1
For all fibrillogenesis studies utilizing Thioflavin T fluorometry, comparisons of Aβ in the presence or absence of test compounds were based on paired Student's t tests with data shown as mean+/−standard deviation. Significance was reported at the 95% (p<0.05), 99% (p<0.01) and 99.9% (p<0.001) confidence levels.
In this study, the dose-dependent effects of glucose pentasulfate (PTI-48579) on Aβ (1-40) fibrillogenesis was determined using the Thioflavin T fluorometry assay. 25 μM of Aβ (1-40) (Bachem Inc., Torrance, Calif., USA; Lot #WM365) was incubated in microcentrifuge tubes at 37° C. for 1 week (in triplicate), either alone, or in the presence of 1.25 mM (ie. 1:50 M ratio of Aβ:PTI-48579), 0.41 mM, 0.138 mM and 0.046 mM of glucose pentasulfate in 150 mM Tris HCl, 10 mM NaCl, pH 7.0 (TBS). 50 μl aliquots were taken from each tube for analysis at 1 hr, 1 day, 3 days, and 1 week using Thioflavin T fluorometry as described in section 4.1. […]

T2 sequence (P05067 672-711 limits assumed): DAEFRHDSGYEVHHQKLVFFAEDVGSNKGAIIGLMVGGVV
T5 sequence (P05067 672-711 limits assumed): as above
T4 sequence (P05067 672-711 limits assumed): as above
T1 sequence (P05067 672-711 limits assumed): as above

inhibition of Aβ-heparan sulfate binding (in words) [1]: significant dose-dependent inhibition | inhibition at 93 µM ([2]; 0.093 mM): 45% | inhibition at 280 µM ([2]; 0.28 mM): 74% | inhibition at 830 µM ([2]; 0.83 mM): 92% | inhibition at 2500 µM ([2]; 2.5 mM): 78% | dissolution of pre-formed amylin fibrils ([3]; 25 μM islet amyloid polypeptide, 1 week): 57% | effect on islet amyloid polypeptide fibrillogenesis at earlier time points (in words) ([3]; 1 hour, 1 day and 2 days): initial increase | dissolution of pre-formed Aβ amyloid fibrils ([4]; 0.16 mM): 23% | dissolution of pre-formed Aβ amyloid fibrils ([4]; 0.31 mM): 31% | dissolution of pre-formed Aβ amyloid fibrils ([4]; 0.63 mM): 47% | dissolution of pre-formed Aβ amyloid fibrils ([4]; 1.25 mM): 60% | effect on Aβ (1-40) amyloid fibril formation (in words) ([5]; Example 1, 25 μM Aβ (1-40)): inhibited | inhibition at 1250 µM ([5]; Example 1, 25 μM Aβ (1-40), 1.25 mM compound, 37° C., 1 week, read-out: inhibition of Aβ (1-40) amyloid fibril formation): 80% | inhibition of Aβ amyloid fibril formation (in words) ([5]; Example 1, 1.25 mM compound, 3 days): Significant inhibition | inhibition of Aβ fibril formation (in words) ([5]; Example 2, 0.046 mM, 3 days): did not significantly inhibit | inhibition of Aβ fibril formation (in words) ([5]; Example 2, 0.138 mM, 3 days): did not significantly inhibit | inhibition at 410 µM ([5]; Example 2, 0.41 mM, 1 week, read-out: inhibition of Aβ (1-40) fibrillogenesis): 47% | inhibition of Aβ fibril formation (in words) ([5]; Example 2, 0.41 mM, 3 days): did not significantly inhibit | inhibition at 1250 µM ([5]; Example 2, 1.25 mM, 1 week, read-out: inhibition of Aβ (1-40) fibrillogenesis): 72% | inhibition at 1250 µM ([5]; Example 2, 1.25 mM, 3 days, read-out: inhibition of Aβ fibril formation): 39%
SMILES: O=C[C@H](OS(=O)(=O)O)[C@@H](OS(=O)(=O)O)[C@H](OS(=O)(=O)O)[C@@H](COS(=O)(=O)O)OS(=O)(=O)O [PTI-48579, glucose pentasulfate]

effect on islet amyloid polypeptide fibrillogenesis (in words) ([3]; all time points (1 hr to 1 week)): significant increase
SMILES: O=C[C@@H](OS(=O)(=O)O)[C@@H](OS(=O)(=O)O)[C@H](OS(=O)(=O)O)[C@@H](COS(=O)(=O)O)OS(=O)(=O)O [mannose pentasulfate, reference compound]
effect on Aβ (1-40) amyloid fibril formation (in words) ([5]; Example 1, 25 μM Aβ (1-40)): ineffective inhibitors; also recorded: did not inhibit

effect on Aβ (1-40) amyloid fibril formation (in words) ([5]; Example 1, 25 μM Aβ (1-40)): ineffective inhibitors
SMILES: CO[C@H]1O[C@H](COS(=O)(=O)O)[C@@H](OS(=O)(=O)O)[C@H](OS(=O)(=O)O)[C@H]1OS(=O)(=O)O [methyl alpha-D-glucopyranoside 2,3,4,6-tetrasulfate, reference compound]
